Where only a bound is given, the exact number is not on record here.

This is an account of results in ChEMBL document CHEMBL1153496, “SAR studies on azasterols as potential anti-trypanosomal and anti-leishmanial agents” (Bioorg Med Chem, 2009).

Series [1] deals with Trypanosoma brucei rhodesiense. Briefly: Antitrypanosomal activity against Trypanosoma brucei rhodesiense blood stream form. Format: functional, organism-based.
Series [2] has as its system Leishmania donovani. Nature of the series: Antitrypanosomal activity against Leishmania donovani amastigotes. Format: functional, organism-based.
The test system of series [3] is Trypanosoma cruzi. Briefly: Antitrypanosomal activity against Trypanosoma cruzi amastigotes. It is filed as functional, organism-based.
A short description of series [4]: Cytotoxicity against rat L6 cells. The note with it: read-out: TD50 (the source's name). It is filed as cell-based.
Series [5] is described as follows: Lipophilicity, log D of the compound. The note with it: octanol/water. Format: physicochemical.
Series [6] concerns KB. Nature of the series: Cytotoxicity against human KB cells. Format: functional, cell-based.
A short description of series [7]: Dissociation constant, pKa of the compound. It is filed as physicochemical.
The nature of series [8]: Stability assessed as ionization at pH 7.4. Format: physicochemical.
A short description of series [9]: Inhibition of Saccharomyces cerevisiae SMT.

For orientation: EC50 means the concentration giving half of the maximal effect. High values mean a less potent agent, low ones a more potent agent. As for `CC(=O)O[C@H]1CC[C@@]2(C)C(=CC[C@H]3[C@@H]4CC[C@H]([C@H](C)CCC(=O)NCCCCCC(=O)O)[C@@]4(C)CC[C@@H]32)C1`, the figures for the EC50 in [1], in [2] and in series [3] were 56 µM, 2 µM and 41.9 µM, respectively. Moreover, in series [4], the CC50 is 63 µM.

For orientation: logD means lipophilicity at a set pH, counting ionised and neutral species. High values mean higher lipophilicity, low ones lower lipophilicity. As to `COC(=O)CCCNC[C@@H](C)[C@H]1CC[C@H]2[C@@H]3CC=C4C[C@@H](OC(=O)c5cccnc5)CC[C@]4(C)[C@H]3CC[C@]12C`, the EC50 was found to be 0.8 µM in series [1], 13.7 µM in series [2] and 2.51 µM in series [3]. Besides, the pH-dependent lipophilicity (logD) in series [5] was found to be 5.2. The CC50 in series [4] was 9.8 µM.

Consider `COC(=O)CCCNC[C@@H](C)[C@H]1CC[C@H]2[C@@H]3CC=C4C[C@@H](OC(C)=O)CC[C@]4(C)[C@H]3CC[C@]12C`, for which the EC50 in series [1] is 0.012 µM; in series [6], 19.2 µM; in series [2], 19.2 µM; in [3], 24.7 µM.

Usually pKa stands for the negative logarithm of the acid dissociation constant. Read a high pKa as a group that holds its proton tightly. Consider `COC(=O)CCCNC[C@@H](C)[C@H]1CC[C@H]2[C@@H]3CC=C4C[C@@H](OC(=O)CN(C)C)CC[C@]4(C)[C@H]3CC[C@]12C`, for which the EC50 in series [1] is 6.2 µM; in series [2], 18.5 µM; in series [3] it was 11.6 µM. In series [7], this compound registered a pKa of 7.1. This compound also gave a pH-dependent lipophilicity (logD) in series [5] of 4.4. In addition, the Activity in series [8] worked out at 34%. In [4], the CC50 amounted to 24 µM.

For `CC(=O)O[C@H]1CC[C@@]2(C)C(=CC[C@H]3[C@@H]4CC[C@H]([C@H](C)CCCNCCCCCC(=O)O)[C@@]4(C)CC[C@@H]32)C1`, the half-maximal effective concentration (EC50) in series [1] is 11.2 µM; in series [2] it was 11.4 µM; in series [3] it was 28.9 µM. Further, the CC50 in series [4] turned out to be 56 µM.

For `COC(=O)CCCCCNC(=O)CC[C@@H](C)[C@H]1CC[C@H]2[C@@H]3CC=C4C[C@@H](OC(C)=O)CC[C@]4(C)[C@H]3CC[C@]12C`, the values for the EC50 in [1], in series [2] and in [3] were 14.6 µM, 1.6 µM and 23 µM, respectively. Besides, in series [4], the CC50 was above 165 µM.

For `CCC(=O)O[C@H]1CC[C@@]2(C)C(=CC[C@H]3[C@@H]4CC[C@H]([C@H](C)CNCCCC(=O)OC)[C@@]4(C)CC[C@@H]32)C1`, the figures for the EC50 in [1], in [2] and in [3] were 0.8 µM, 12.1 µM and 7.6 µM, respectively. This compound also showed a logD in series [5] of 5.1. Further, the CC50 in series [4] came out at 21.9 µM.

In the case of `CCCC(=O)O[C@H]1CC[C@@]2(C)C(=CC[C@H]3[C@@H]4CC[C@H]([C@H](C)CNCCCC(=O)OC)[C@@]4(C)CC[C@@H]32)C1`, the EC50 was determined as 1.6 µM in series [1], 6.8 µM in series [2] and 1.7 µM in series [3]. For the same compound, in series [5], the logD is 5.6. Also, the CC50 in [4] turned out to be 30.7 µM.

Turning to `COC(=O)CCCNC[C@@H](C)[C@H]1CC[C@H]2[C@@H]3CC=C4C[C@@H](OC(=O)CC(C)C)CC[C@]4(C)[C@H]3CC[C@]12C`, the figures for the EC50 in [1], in series [2] and in series [3] were 3.9 µM, 4.9 µM and 10.8 µM, respectively. In series [5], the log distribution coefficient (logD) is 6. For the same compound, in series [4], the CC50 came out at 33.2 µM.

As for `COC(=O)CCCCCNCCC[C@@H](C)[C@H]1CC[C@H]2[C@@H]3CC=C4C[C@@H](OC(C)=O)CC[C@]4(C)[C@H]3CC[C@]12C`, the EC50 was determined as 2 µM in series [1], 11.7 µM in series [2] and 11.1 µM in series [3]. Further, in [4], the CC50 was 7.4 µM.

With `COC(=O)CCCNCCC[C@@H](C)[C@H]1CC[C@H]2[C@@H]3CC=C4C[C@@H](OC(C)=O)CC[C@]4(C)[C@H]3CC[C@]12C`, the values for the EC50 in series [1], in [2] and in series [3] were 1.8 µM, 23.8 µM and 7.4 µM, respectively. The CC50 in [4] amounted to 5.8 µM.

As for `COC(=O)CCCNC[C@@H](C)[C@H]1CC[C@H]2[C@@H]3CC=C4C[C@@H](OC(=O)CCC(=O)O)CC[C@]4(C)[C@H]3CC[C@]12C`, the values for the EC50 in [1], in series [2] and in series [3] were 9.8 µM, 35.7 µM and 13.7 µM, respectively. In addition, in series [7], the pKa is 4.4. The logD in series [5] stood at 4.1. Further, the Activity in series [8] was 99%. The CC50 in series [4] came to 76.7 µM.

One may read the IC50 as the concentration that gives 50% inhibition. `C[C@H](CCCN(C)C)[C@H]1CC[C@H]2C3=C(CC[C@]12C)[C@@]1(C)CC[C@H](O)C[C@@H]1CC3` registered an IC50 in series [9] of 0.08 µM.

Turning to `CC(=O)O[C@H]1CC[C@@]2(C)C(=CC[C@H]3[C@@H]4CC[C@H]([C@H](C)CCCN5CCCC5=O)[C@@]4(C)CC[C@@H]32)C1`, the values for the EC50 in [1], in series [2] and in series [3] were 38.3 µM, 13.9 µM and 25 µM, respectively. Further, the CC50 in [4] stood at 2.5 µM.

As for `CC(=O)O[C@H]1CC[C@@]2(C)C(=CC[C@H]3[C@@H]4CC[C@H]([C@H](C)CCC(=O)N(C)C)[C@@]4(C)CC[C@@H]32)C1`, the EC50 in series [1] worked out at 21.7 µM; in series [2], 24.6 µM; in [3], 28.2 µM. The CC50 in [4] is above 202 µM.

As to `COC(=O)CCCNC[C@@H](C)[C@H]1CC[C@H]2[C@@H]3CC=C4C[C@@H](OC(=O)C(C)(C)C)CC[C@]4(C)[C@H]3CC[C@]12C`, the EC50 in [1] was 2.2 µM; in series [2], 11.3 µM; in series [3] it was 9.7 µM. Further, in series [5], the logD came out at 5.8. Besides, the CC50 in series [4] stood at 11.1 µM.

On to `COC(=O)CCCNC(=O)CC[C@@H](C)[C@H]1CC[C@H]2[C@@H]3CC=C4C[C@@H](OC(C)=O)CC[C@]4(C)[C@H]3CC[C@]12C`, for which the values for the EC50 in series [1], in [2] and in series [3] were 18.4 µM, 3.1 µM and 19.7 µM, respectively. The CC50 in series [4] was above 174 µM.
